Assay results reported in ChEMBL document CHEMBL1275354, “Anticonvulsant activity of 2,4(1H)-diarylimidazoles in mice and rats acute seizure models” (Bioorg Med Chem, 2010).
Calls of active or inactive are those of the source. The rule behind the calls is not given here.

Assays:
Rattus norvegicus [1] = test: Anticonvulsant activity in albino Sprague-Dawley rat assessed as protection against maximal electroshock-induced seizures at 30 mg/kg, po after 1 hr; type: functional, organism-based; design: dose 30 mg/kg
Mus musculus [2] = test: Anticonvulsant activity in albino CF1 mouse assessed as protection against maximal electroshock-induced seizures at 100 mg/kg, ip after 0.5 hrs; type: functional, organism-based; design: dose 100 mg/kg
Mus musculus [3] = test: Neurotoxicity in ip dosed albino CF1 mouse assessed as minimum dose required to cause toxicity after 0.5 hrs by rotarod test; type: organism-based; conditions: in vivo
Mus musculus [4] = test: Anticonvulsant activity against subcutaneous metrazole-induced seizures in ip dosed albino CF1 mouse assessed as minimum effective dose after 4 hrs; type: functional; conditions: albino CF1, 4 h, read-out: MED
Mus musculus [5] = test: Anticonvulsant activity in albino CF1 mouse assessed as protection against subcutaneous metrazole-induced seizures at 100 mg/kg, ip after 0.5 hrs; type: functional, organism-based; design: dose 100 mg/kg
Mus musculus [6] = test: Anticonvulsant activity in albino CF1 mouse assessed as protection against maximal electroshock-induced seizures at 300 mg/kg, ip after 0.5 hrs; type: functional, organism-based; design: dose 300 mg/kg
Mus musculus [7] = test: Anticonvulsant activity against subcutaneous metrazole-induced seizures in ip dosed albino CF1 mouse assessed as minimum effective dose after 0.5 hrs; type: functional; conditions: albino CF1, 0.5 h, read-out: MED
Mus musculus [8] = test: Neurotoxicity in albino CF1 mouse assessed as minimal motor impairment at 30 to 300 mg/kg, po after 4 hrs by rotarod test; type: toxicity, organism-based; design: dose 30-300 mg/kg, route oral; conditions: in vivo
Mus musculus [9] = test: Anticonvulsant activity in albino CF1 mouse assessed as protection against maximal electroshock-induced seizures at 100 mg/kg, ip after 4 hrs; type: functional, organism-based; design: dose 100 mg/kg
Mus musculus [10] = test: Anticonvulsant activity in albino CF1 mouse assessed as protection against subcutaneous metrazole-induced seizures at 30 mg/kg, ip after 0.5 hrs; type: functional, organism-based; design: dose 30 mg/kg
Rattus norvegicus [11] = test: Anticonvulsant activity in albino Sprague-Dawley rat assessed as protection against maximal electroshock-induced seizures at 30 mg/kg, po after 4 hrs; type: functional, organism-based; design: dose 30 mg/kg
Mus musculus [12] = test: Neurotoxicity in albino CF1 mouse assessed as minimal motor impairment at 30 mg/kg, ip after 4 hrs by rotarod test; type: toxicity, organism-based; design: dose 30 mg/kg, route intraperitoneal; conditions: in vivo
Mus musculus [13] = test: Anticonvulsant activity in albino CF1 mouse assessed as protection against subcutaneous metrazole-induced seizures at 300 mg/kg, ip after 0.5 hrs; type: functional, organism-based; design: dose 300 mg/kg
Mus musculus [14] = test: Anticonvulsant activity in albino CF1 mouse assessed as protection against maximal electroshock-induced seizures at 30 mg/kg, ip after 0.5 hrs; type: functional, organism-based; design: dose 30 mg/kg
Rattus norvegicus [15] = test: Anticonvulsant activity in albino Sprague-Dawley rat assessed as protection against maximal electroshock-induced seizures at 30 mg/kg, po after 0.25 hrs; type: functional, organism-based; design: dose 30 mg/kg
Mus musculus [16] = test: Neurotoxicity in albino CF1 mouse assessed as minimal motor impairment at 100 mg/kg, ip after 4 hrs by rotarod test; type: toxicity, organism-based; design: dose 100 mg/kg, route intraperitoneal; conditions: in vivo
Mus musculus [17] = test: Neurotoxicity in albino CF1 mouse assessed as minimal motor impairment at 30 mg/kg, ip after 0.5 hrs by rotarod test; type: toxicity, organism-based; design: dose 30 mg/kg, route intraperitoneal; conditions: in vivo
Mus musculus [18] = test: Anticonvulsant activity against maximal electroshock-induced seizures in ip dosed albino CF1 mouse assessed as minimum effective dose after 4 hrs; type: functional; conditions: read-out: MED
Mus musculus [19] = test: Anticonvulsant activity in albino CF1 mouse assessed as protection against maximal electroshock-induced seizures at 300 mg/kg, ip after 4 hrs; type: functional, organism-based; design: dose 300 mg/kg
Mus musculus [20] = test: Anticonvulsant activity in albino CF1 mouse assessed as protection against subcutaneous metrazole-induced seizures at 300 mg/kg, ip after 4 hrs; type: functional, organism-based; design: dose 300 mg/kg
Mus musculus [21] = test: Anticonvulsant activity in albino CF1 mouse assessed as protection against subcutaneous metrazole-induced seizures at 30 mg/kg, ip after 4 hrs; type: functional, organism-based; design: dose 30 mg/kg
Mus musculus [22] = test: Neurotoxicity in ip dosed albino CF1 mouse assessed as minimum dose required to cause toxicity after 4 hrs by rotarod test; type: organism-based; conditions: in vivo
Rattus norvegicus [23] = test: Anticonvulsant activity in albino Sprague-Dawley rat assessed as protection against maximal electroshock-induced seizures at 30 mg/kg, po after 2 hrs; type: functional, organism-based; design: dose 30 mg/kg
Mus musculus [24] = test: Neurotoxicity in albino CF1 mouse assessed as minimal motor impairment at 300 mg/kg, ip after 4 hrs by rotarod test; type: toxicity, organism-based; design: dose 300 mg/kg, route intraperitoneal; conditions: in vivo
Mus musculus [25] = test: Neurotoxicity in albino CF1 mouse assessed as minimal motor impairment at 30 to 300 mg/kg, ip after 0.5 hrs by rotarod test; conditions: in vivo
Mus musculus [26] = test: Anticonvulsant activity against maximal electroshock-induced seizures in ip dosed albino CF1 mouse assessed as minimum effective dose after 0.5 hrs; type: functional; conditions: read-out: MED
Rattus norvegicus [27] = test: Anticonvulsant activity in albino Sprague-Dawley rat assessed as protection against maximal electroshock-induced seizures at 30 mg/kg, po after 0.5 hrs; type: functional, organism-based; design: dose 30 mg/kg
Mus musculus [28] = test: Anticonvulsant activity in albino CF1 mouse assessed as protection against subcutaneous metrazole-induced seizures at 100 mg/kg, ip after 4 hrs; type: functional, organism-based; design: dose 100 mg/kg
Rattus norvegicus [29] = test: Neurotoxicity in albino Sprague-Dawley rat assessed as minimal motor impairment at 30 mg/kg, po by rotarod test; type: toxicity, organism-based; design: dose 30 mg/kg, route oral; conditions: in vivo
Mus musculus [30] = test: Neurotoxicity in albino CF1 mouse assessed as minimal motor impairment at 100 mg/kg, ip after 0.5 hrs by rotarod test; type: toxicity, organism-based; design: dose 100 mg/kg, route intraperitoneal; conditions: in vivo
Mus musculus [31] = test: Anticonvulsant activity in albino CF1 mouse assessed as protection against maximal electroshock-induced seizures at 30 mg/kg, ip after 4 hrs; type: functional, organism-based; design: dose 30 mg/kg
Mus musculus [32] = test: Neurotoxicity in albino CF1 mouse assessed as minimal motor impairment at 300 mg/kg, ip after 0.5 hrs by rotarod test; type: toxicity, organism-based; design: dose 300 mg/kg, route intraperitoneal; conditions: in vivo

For `Clc1ccc(-c2c[nH]c(-c3ccccc3)n2)cc1`, the Activity (Rattus norvegicus [1]) was “inactive”, the Activity (Mus musculus [2]) was “Active” and the MED (Mus musculus [3]) was 100 mg/kg. For the same compound, the minimal effective dose (Mus musculus [4]) was greater than 300 mg/kg, the Activity (Mus musculus [5]) was “inactive” and the Activity (Mus musculus [6]) was “Active”. The minimal effective dose (Mus musculus [7]) was greater than 300 mg/kg, the Activity (Mus musculus [8]) was “Non-toxic” and the Activity (Mus musculus [9]) was “inactive”. The Activity (Mus musculus [10]) was “inactive”, the Activity (Rattus norvegicus [11]) was “inactive” and the Activity (Mus musculus [12]) was “Non-toxic”. For the same compound, the Activity (Mus musculus [13]) was “inactive”, the Activity (Mus musculus [14]) was “inactive” and the Activity (Rattus norvegicus [15]) was “inactive”. For the same compound, the Activity (Mus musculus [16]) was “Non-toxic”, the Activity (Mus musculus [17]) was “Non-toxic” and the minimal effective dose (Mus musculus [18]) was 100 mg/kg. For the same compound, the Activity (Mus musculus [19]) was “Active”, the Activity (Mus musculus [20]) was “inactive” and the Activity (Mus musculus [21]) was “inactive”. For the same compound, the MED (Mus musculus [22]) was greater than 300 mg/kg, the Activity (Rattus norvegicus [23]) was “inactive” and the Activity (Mus musculus [24]) was “Non-toxic”. The Activity (Mus musculus [25]) was “Non-toxic”, the minimal effective dose (Mus musculus [26]) was greater than 30 mg/kg and the Activity (Rattus norvegicus [27]) was “inactive”. The Activity (Mus musculus [28]) was “inactive”, the Activity (Rattus norvegicus [29]) was “Non-toxic” and the Activity (Mus musculus [30]) was “Non-toxic”. The Activity (Mus musculus [31]) was “inactive”.
For `O=[N+]([O-])c1cccc(-c2c[nH]c(-c3ccccc3)n2)c1`, the Activity (Rattus norvegicus [1]) was “inactive”, the MED (Mus musculus [3]) was greater than 300 mg/kg and the minimal effective dose (Mus musculus [4]) was greater than 300 mg/kg. For the same compound, the Activity (Mus musculus [5]) was “inactive”, the Activity (Mus musculus [6]) was “Active” and the minimal effective dose (Mus musculus [7]) was greater than 300 mg/kg. The Activity (Mus musculus [8]) was “Non-toxic”, the Activity (Mus musculus [9]) was “inactive” and the Activity (Mus musculus [10]) was “inactive”. The Activity (Rattus norvegicus [11]) was “inactive”, the Activity (Mus musculus [12]) was “Non-toxic” and the Activity (Mus musculus [13]) was “inactive”. For the same compound, the Activity (Mus musculus [14]) was “inactive”, the Activity (Rattus norvegicus [15]) was “inactive” and the Activity (Mus musculus [16]) was “Non-toxic”. The Activity (Mus musculus [17]) was “Non-toxic”, the minimal effective dose (Mus musculus [18]) was 100 mg/kg and the Activity (Mus musculus [19]) was “Active”. For the same compound, the Activity (Mus musculus [20]) was “inactive”, the Activity (Mus musculus [21]) was “inactive” and the MED (Mus musculus [22]) was greater than 300 mg/kg. For the same compound, the Activity (Mus musculus [32]) was “Non-toxic”, the Activity (Rattus norvegicus [23]) was “inactive” and the Activity (Mus musculus [24]) was “Non-toxic”. The Activity (Mus musculus [25]) was “Non-toxic”, the minimal effective dose (Mus musculus [26]) was 100 mg/kg and the Activity (Rattus norvegicus [27]) was “inactive”. The Activity (Mus musculus [28]) was “inactive”, the Activity (Rattus norvegicus [29]) was “Non-toxic” and the Activity (Mus musculus [30]) was “Non-toxic”. For the same compound, the Activity (Mus musculus [31]) was “inactive”.
`O=[N+]([O-])c1cccc(-c2nc(-c3ccccc3)c[nH]2)c1` was tested, and the Activity (Rattus norvegicus [1]) was “inactive”, the MED (Mus musculus [3]) was greater than 300 mg/kg and the minimal effective dose (Mus musculus [4]) was greater than 300 mg/kg. For the same compound, the Activity (Mus musculus [5]) was “inactive”, the Activity (Mus musculus [6]) was “Active” and the minimal effective dose (Mus musculus [7]) was greater than 300 mg/kg. The Activity (Mus musculus [8]) was “Non-toxic”, the Activity (Mus musculus [9]) was “inactive” and the Activity (Mus musculus [10]) was “inactive”. The Activity (Rattus norvegicus [11]) was “inactive”, the Activity (Mus musculus [12]) was “Non-toxic” and the Activity (Mus musculus [13]) was “inactive”. The Activity (Mus musculus [14]) was “inactive”, the Activity (Rattus norvegicus [15]) was “inactive” and the Activity (Mus musculus [16]) was “Non-toxic”. The Activity (Mus musculus [17]) was “Non-toxic”, the minimal effective dose (Mus musculus [18]) was 100 mg/kg and the Activity (Mus musculus [19]) was “Active”. For the same compound, the Activity (Mus musculus [20]) was “inactive”, the Activity (Mus musculus [21]) was “inactive” and the MED (Mus musculus [22]) was greater than 300 mg/kg. The Activity (Mus musculus [32]) was “Non-toxic”, the Activity (Rattus norvegicus [23]) was “inactive” and the Activity (Mus musculus [24]) was “Non-toxic”. For the same compound, the Activity (Mus musculus [25]) was “Non-toxic”, the minimal effective dose (Mus musculus [26]) was 100 mg/kg and the Activity (Rattus norvegicus [27]) was “inactive”. For the same compound, the Activity (Mus musculus [28]) was “inactive”, the Activity (Rattus norvegicus [29]) was “Non-toxic” and the Activity (Mus musculus [30]) was “Non-toxic”. For the same compound, the Activity (Mus musculus [31]) was “inactive”.
